From PubChem BioAssay AID1963981 (Molecular Pharmacology Branch, DTP, NCI, 2024)

Test system: 354836-022-R-J1-PDC multicell spheroid viability
Experiment: Anticancer human tumor 354836-022-R-J1-PDC patient-derived head and neck squamous cell carcinoma cell line growth inhibition [PI3K]
Settings: for IC50: curve of first compound; for viability, T/C: stronger effect = lower value
In short: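 Targeted small molecules plus PI3K inhibitors, half-log dose series from Cmax (default top 10 microM), were applied to heterotypic spheroids of cancer cells with HUVEC and MSCs. Viability indicated growth inhibition.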

[1] = second compound 0.00316 µM, first compound 0.0316 µM
[2] = second compound 0.00316 µM, first compound 0.1 µM
[3] = second compound 0.00316 µM, first compound 0.316 µM
[4] = second compound 0.00316 µM, first compound 1 µM
[5] = second compound 0.00316 µM, first compound 3.16 µM
[6] = second compound 0.00316 µM, first compound 10 µM
[7] = second compound 0.01 µM, first compound 0.0316 µM
[8] = second compound 0.01 µM, first compound 0.1 µM
[9] = second compound 0.01 µM, first compound 0.316 µM
[10] = second compound 0.01 µM, first compound 1 µM
[11] = second compound 0.01 µM, first compound 3.16 µM
[12] = second compound 0.01 µM, first compound 10 µM
[13] = second compound 0.0316 µM, first compound 0.0316 µM
[14] = second compound 0.0316 µM, first compound 0.1 µM
[15] = second compound 0.0316 µM, first compound 0.316 µM
[16] = second compound 0.0316 µM, first compound 1 µM
[17] = second compound 0.0316 µM, first compound 3.16 µM
[18] = second compound 0.0316 µM, first compound 10 µM
[19] = second compound 0.1 µM, first compound 0.0316 µM
[20] = second compound 0.1 µM, first compound 0.1 µM
[21] = second compound 0.1 µM, first compound 0.316 µM
[22] = second compound 0.1 µM, first compound 1 µM
[23] = second compound 0.1 µM, first compound 3.16 µM
[24] = second compound 0.1 µM, first compound 10 µM
[25] = second compound 0.316 µM, first compound 0.0316 µM
[26] = second compound 0.316 µM, first compound 0.1 µM
[27] = second compound 0.316 µM, first compound 0.316 µM
[28] = second compound 0.316 µM, first compound 1 µM
[29] = second compound 0.316 µM, first compound 3.16 µM
[30] = second compound 0.316 µM, first compound 10 µM
[31] = second compound 1 µM, first compound 0.0316 µM
[32] = second compound 1 µM, first compound 0.1 µM
[33] = second compound 1 µM, first compound 0.316 µM
[34] = second compound 1 µM, first compound 1 µM
[35] = second compound 1 µM, first compound 3.16 µM
[36] = second compound 1 µM, first compound 10 µM
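Note: spheroids exposed to agents for seven days before the viability read.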

**Q.** For `C#Cc1c(F)ccc2cc(O)cc(-c3ncc4c(N5CC6CCC(C5)N6)nc(OCC56CCCN5CC(F)C6)nc4c3F)c12` (stereo unspecified) + CC(Nc1ccc2c(c1)OCCn1cc(N3C(=O)OCC3C(F)F)nc1-2)C(N)=O, which IC50 (second compound 0.00316 µM) is on record?
**A.** > 10 µM

**Q.** What about the IC50 (second compound 0.01 µM) of the same compound?
**A.** > 10 µM

**Q.** What about the IC50 (second compound 0.0316 µM) of the same compound?
**A.** > 10 µM

**Q.** What about the IC50 (second compound 0.1 µM) of the same compound?
**A.** > 10 µM

**Q.** And the IC50 (second compound 0.316 µM)?
**A.** > 10 µM

**Q.** And the IC50 (second compound 1 µM)?
**A.** > 10 µM

**Q.** And the viability, T/C [1]?
**A.** 106%

**Q.** And the viability, T/C [2]?
**A.** 78%

**Q.** What about the viability, T/C [3] of the same compound?
**A.** 96.6%

**Q.** What about the viability, T/C [4] of the same compound?
**A.** 92.7%

**Q.** And the viability, T/C [5]?
**A.** 97.4%

**Q.** What about the viability, T/C [6] of the same compound?
**A.** 99.1%

**Q.** What about the viability, T/C [7] of the same compound?
**A.** 97.5%

**Q.** What about the viability, T/C [8] of the same compound?
**A.** 98.9%

**Q.** What about the viability, T/C [9] of the same compound?
**A.** 93.4%

**Q.** And the viability, T/C [10]?
**A.** 96.4%

**Q.** What about the viability, T/C [11] of the same compound?
**A.** 103%

**Q.** What about the viability, T/C [12] of the same compound?
**A.** 99%

**Q.** And the viability, T/C [13]?
**A.** 87.3%

**Q.** What about the viability, T/C [14] of the same compound?
**A.** 108%

**Q.** What about the viability, T/C [15] of the same compound?
**A.** 80.9%

**Q.** And the viability, T/C [16]?
**A.** 95.5%

**Q.** And the viability, T/C [17]?
**A.** 97.8%

**Q.** And the viability, T/C [18]?
**A.** 92.9%

**Q.** What about the viability, T/C [19] of the same compound?
**A.** 78.7%

**Q.** And the viability, T/C [20]?
**A.** 103%

**Q.** And the viability, T/C [21]?
**A.** 78.1%

**Q.** And the viability, T/C [22]?
**A.** 92.4%

**Q.** What about the viability, T/C [23] of the same compound?
**A.** 88.8%

**Q.** What about the viability, T/C [24] of the same compound?
**A.** 71.8%

**Q.** What about the viability, T/C [25] of the same compound?
**A.** 70.8%

**Q.** And the viability, T/C [26]?
**A.** 89.1%

**Q.** And the viability, T/C [27]?
**A.** 79.5%

**Q.** What about the viability, T/C [28] of the same compound?
**A.** 79.7%

**Q.** What about the viability, T/C [29] of the same compound?
**A.** 83.5%

**Q.** And the viability, T/C [30]?
**A.** 61.9%

**Q.** What about the viability, T/C [31] of the same compound?
**A.** 70.2%

**Q.** What about the viability, T/C [32] of the same compound?
**A.** 56.8%

**Q.** And the viability, T/C [33]?
**A.** 55.9%

**Q.** And the viability, T/C [34]?
**A.** 59.7%

**Q.** What about the viability, T/C [35] of the same compound?
**A.** 57.2%

**Q.** And the viability, T/C [36]?
**A.** 54%

**Q.** For `CC(Cn1ccc(-c2ccc(C#N)c(Cl)c2)n1)NC(=O)c1cc(C(C)O)[nH]n1` (stereo unspecified) + CC(Nc1ccc2c(c1)OCCn1cc(N3C(=O)OCC3C(F)F)nc1-2)C(N)=O, which IC50 (second compound 0.00316 µM) is on record?
**A.** > 10 µM

**Q.** And the IC50 (second compound 0.01 µM)?
**A.** > 10 µM

**Q.** And the IC50 (second compound 0.0316 µM)?
**A.** > 10 µM

**Q.** What about the IC50 (second compound 0.1 µM) of the same compound?
**A.** > 10 µM

**Q.** What about the IC50 (second compound 0.316 µM) of the same compound?
**A.** > 10 µM

**Q.** And the IC50 (second compound 1 µM)?
**A.** 8.45 µM

**Q.** What about the viability, T/C [1] of the same compound?
**A.** 99.4%

**Q.** And the viability, T/C [2]?
**A.** 88.8%

**Q.** And the viability, T/C [3]?
**A.** 96.7%

**Q.** What about the viability, T/C [4] of the same compound?
**A.** 86.8%

**Q.** What about the viability, T/C [5] of the same compound?
**A.** 94.3%

**Q.** What about the viability, T/C [6] of the same compound?
**A.** 73.8%

**Q.** What about the viability, T/C [7] of the same compound?
**A.** 95.9%

**Q.** What about the viability, T/C [8] of the same compound?
**A.** 103%

**Q.** And the viability, T/C [9]?
**A.** 99.6%

**Q.** And the viability, T/C [10]?
**A.** 81.8%

**Q.** And the viability, T/C [11]?
**A.** 88.3%

**Q.** What about the viability, T/C [12] of the same compound?
**A.** 74.8%

**Q.** What about the viability, T/C [13] of the same compound?
**A.** 78.9%

**Q.** What about the viability, T/C [14] of the same compound?
**A.** 87.6%

**Q.** And the viability, T/C [15]?
**A.** 92.5%

**Q.** And the viability, T/C [16]?
**A.** 97.4%

**Q.** What about the viability, T/C [17] of the same compound?
**A.** 91.1%

**Q.** And the viability, T/C [18]?
**A.** 81.8%

**Q.** What about the viability, T/C [19] of the same compound?
**A.** 77.2%

**Q.** And the viability, T/C [20]?
**A.** 91.9%

**Q.** What about the viability, T/C [21] of the same compound?
**A.** 83.7%

**Q.** And the viability, T/C [22]?
**A.** 87.3%

**Q.** What about the viability, T/C [23] of the same compound?
**A.** 73.9%

**Q.** And the viability, T/C [24]?
**A.** 82.9%

**Q.** What about the viability, T/C [25] of the same compound?
**A.** 75.3%

**Q.** And the viability, T/C [26]?
**A.** 67.5%

**Q.** What about the viability, T/C [27] of the same compound?
**A.** 69.8%

**Q.** What about the viability, T/C [28] of the same compound?
**A.** 75.5%

**Q.** What about the viability, T/C [29] of the same compound?
**A.** 76.8%

**Q.** What about the viability, T/C [30] of the same compound?
**A.** 63.6%

**Q.** And the viability, T/C [31]?
**A.** 71.2%

**Q.** What about the viability, T/C [32] of the same compound?
**A.** 67.4%

**Q.** And the viability, T/C [33]?
**A.** 69.5%

**Q.** What about the viability, T/C [34] of the same compound?
**A.** 64.3%

**Q.** What about the viability, T/C [35] of the same compound?
**A.** 61.4%

**Q.** And the viability, T/C [36]?
**A.** 48%

**Q.** With `CC1(C)CCC(Nc2ncc(C(F)(F)F)c(-c3c[nH]c4c(P(C)(C)=O)c(C#N)ccc34)n2)CN1` (stereo unspecified) + CC(Nc1ccc2c(c1)OCCn1cc(N3C(=O)OCC3C(F)F)nc1-2)C(N)=O as the compound, how does the IC50 (second compound 0.00316 µM) read?
**A.** < 0.0316 µM

**Q.** And the IC50 (second compound 0.01 µM)?
**A.** < 0.0316 µM

**Q.** And the IC50 (second compound 0.0316 µM)?
**A.** < 0.0316 µM

**Q.** What about the IC50 (second compound 0.1 µM) of the same compound?
**A.** < 0.0316 µM

**Q.** What about the IC50 (second compound 0.316 µM) of the same compound?
**A.** < 0.0316 µM

**Q.** What about the IC50 (second compound 1 µM) of the same compound?
**A.** < 0.0316 µM

**Q.** What about the viability, T/C [1] of the same compound?
**A.** 21.5%

**Q.** What about the viability, T/C [2] of the same compound?
**A.** 18.9%

**Q.** And the viability, T/C [3]?
**A.** 21.4%

**Q.** What about the viability, T/C [4] of the same compound?
**A.** 22.9%

**Q.** And the viability, T/C [5]?
**A.** 32.5%

**Q.** What about the viability, T/C [6] of the same compound?
**A.** 2.76%

**Q.** And the viability, T/C [7]?
**A.** 28.1%

**Q.** And the viability, T/C [8]?
**A.** 18.5%

**Q.** What about the viability, T/C [9] of the same compound?
**A.** 27.8%

**Q.** And the viability, T/C [10]?
**A.** 25.4%

**Q.** What about the viability, T/C [11] of the same compound?
**A.** 32.9%

**Q.** And the viability, T/C [12]?
**A.** 2.41%

**Q.** And the viability, T/C [13]?
**A.** 16.7%

**Q.** And the viability, T/C [14]?
**A.** 21.1%

**Q.** What about the viability, T/C [15] of the same compound?
**A.** 16.9%

**Q.** And the viability, T/C [16]?
**A.** 19%

**Q.** What about the viability, T/C [17] of the same compound?
**A.** 23.6%

**Q.** What about the viability, T/C [18] of the same compound?
**A.** 1.33%

**Q.** And the viability, T/C [19]?
**A.** 18.6%

**Q.** And the viability, T/C [20]?
**A.** 15.8%

**Q.** And the viability, T/C [21]?
**A.** 22.1%

**Q.** And the viability, T/C [22]?
**A.** 16.2%

**Q.** What about the viability, T/C [23] of the same compound?
**A.** 22.3%

**Q.** And the viability, T/C [24]?
**A.** 1.47%

**Q.** And the viability, T/C [25]?
**A.** 12.8%

**Q.** And the viability, T/C [26]?
**A.** 15.8%

**Q.** What about the viability, T/C [27] of the same compound?
**A.** 14.7%

**Q.** What about the viability, T/C [28] of the same compound?
**A.** 19.9%

**Q.** And the viability, T/C [29]?
**A.** 18.3%

**Q.** And the viability, T/C [30]?
**A.** 1.99%

**Q.** What about the viability, T/C [31] of the same compound?
**A.** 14.1%

**Q.** What about the viability, T/C [32] of the same compound?
**A.** 13%

**Q.** What about the viability, T/C [33] of the same compound?
**A.** 14.1%

**Q.** What about the viability, T/C [34] of the same compound?
**A.** 16.6%

**Q.** And the viability, T/C [35]?
**A.** 19.3%

**Q.** And the viability, T/C [36]?
**A.** 1.51%
